Test results reported in the NIST ThermoML archive (doi:10.1021/je0502593).

Legend:
[1] = 101.33 kPa, Liquid, Capillary tube (Ostwald / Ubbelohde) method
[2] = xn = mol fraction of the nth substance listed; conditions: 101 kPa, Liquid, Capillary tube (Ostwald / Ubbelohde) method, x1 = 0.364

CC1CCCCC1 [methylcyclohexane]
[1]
Conditions | viscosity [mPa·s]
298.61 K | 0.7341
303.63 K | 0.6844
308.95 K | 0.636
317.71 K | 0.5669
323.66 K | 0.5268
328.77 K | 0.4964
333.69 K | 0.469

FC(F)(F)C1(F)C(F)(F)C(F)(F)C(F)(F)C(F)(F)C1(F)F [perfluoro(methylcyclohexane)]
[1]
Conditions | viscosity [mPa·s]
319.2 K | 1.031
320.16 K | 1.011
323.18 K | 0.9582
328.13 K | 0.8787
333.11 K | 0.8074

FC(F)(F)C1(F)C(F)(F)C(F)(F)C(F)(F)C(F)(F)C1(F)F [perfluoro(methylcyclohexane)] + CC1CCCCC1
[2]
Conditions | viscosity [mPa·s]
320.16 K | 0.7472
320.19 K | 0.728
320.34 K | 0.689
320.5 K | 0.6723
320.74 K | 0.6544
321 K | 0.6428
321.39 K | 0.6292
321.96 K | 0.6151
322.62 K | 0.6018
324.05 K | 0.5798
325.5 K | 0.5617
326.98 K | 0.5452
328.41 K | 0.5313
330.08 K | 0.517
331.6 K | 0.5034
333.21 K | 0.4923
334.85 K | 0.4806
336.69 K | 0.4679
338.48 K | 0.4558
340.38 K | 0.4438
